≈ marks a conversion by molar mass, not a printed value.

On the set-up of data set [1]: method as in PMID 25812151. Conditions: mice, oral acute toxicity; cited from earlier work.
The test system of data set [2] is MRSA ATCC 43300. The data set can be described thus: MIC, broth dilution micro-method. The format is cell-based. Conditions: Staphylococcus aureus, 24 h, MHB. On the procedure:
(§1) The MICs of NPDM against MRSA were determined by the broth dilution micro-method. Briefly, the stock solution of NPDM and the reference drug tiamulin were diluted by a two-fold serial dilution method with MHB in a 96-well plate to provide concentration ranges of 16~0.032 μg/mL. Then 100 μL of bacterial suspensions in log phase were diluted to 10^6 CFU/mL with MHB and were added to each well to make the final concentrations of the test compounds ranging from 8 to 0.016 μg/mL. The bacterial suspension (no drugs but solvent) was used as the positive control and MHB (no cultures) was used as the negative control. […] The MICs assay was carried out in triplicate.

The test system of data set [3] is S. aureus 144 (clinical strain). The data set can be described thus: MIC, broth dilution micro-method. Format: cell-based. The settings on record: Staphylococcus aureus, 24 h, MHB. On the procedure:
as §1

Data set [4] has as its system S. aureus AD3 (clinical strain). The data set can be described thus: MIC, broth dilution micro-method. Format: cell-based. Conditions: Staphylococcus aureus, 24 h, MHB. On the procedure:
as §1

Data set [5] deals with S. aureus ATCC 29213. Briefly: MIC, broth dilution micro-method. Format: cell-based. The settings on record: Staphylococcus aureus, ATCC29213, 24 h, MHB. How it is done:
as §1

The subject of data set [6] is MRSA ATCC 43300. The data set can be described thus: MBC assay. The format is cell-based, Staphylococcus aureus. The settings on record: Staphylococcus aureus; MRSA ATCC 43300. On the procedure:
(§2) Determination of MBCs refers to the minimum concentrations of antibacterial agents required to kill 99.9% of the test microorganisms after 24 h of incubation. After obtaining the MICs value, the 96-well plates were placed at 37 °C and incubated for 24 h. One hundred microliter aliquots of the bacterial suspensions were taken from the wells without visible bacterial growth and then plated onto MHA plates. […] The MBC assay was conducted at least in triplicate.

In data set [7] the test system is S. aureus 144 (clinical strain). The data set can be described thus: MBC assay. The format is cell-based. The settings on record: Staphylococcus aureus. On the procedure: as §2
In data set [8] the test system is S. aureus AD3 (clinical strain). The data set can be described thus: MBC assay. Format: cell-based. Conditions: Staphylococcus aureus. On the procedure: as §2
The test system of data set [9] is S. aureus ATCC 29213. Briefly: MBC assay. The format is cell-based. The settings on record: Staphylococcus aureus, ATCC29213. How it is done:
as §2

For data set [10], the system named is MRSA ATCC 43300. Briefly: Time-kill assay. Format: cell-based, Staphylococcus aureus. On the procedure:
(§3) The MRSA and S. aureus in the logarithmic phase were diluted to 10^6 CFU/mL with MHB. Then diverse concentrations of NPDM or tiamulin were added to the bacteria solution reaching the final concentration of 1 × MIC, 2 × MIC, 4 × MIC, and 8 × MIC, respectively. All bacterial inoculums were cultured at 37 °C with shaking. A total of 100 μL samples were taken from the subcultures at 0, 3, 6, 9, and 24 h, respectively, and continuously diluted 10-fold in sterile saline; then, 25 μL diluent was plated on the MHA plate. All plates were placed at 37 °C for 24 h. The total number of colonies on the plate was counted, and the results were expressed as log (CFU/mL).

Data set [11] has as its system S. aureus ATCC 29213. Briefly: Time-kill assay. Format: cell-based, Staphylococcus aureus. On the procedure:
as §3

In data set [12] the test system is MRSA ATCC 43300. Briefly: Post-antibiotic effect (PAE) assay. The format is cell-based, Staphylococcus aureus. On the procedure:
The PAE was carried out as described in the literature. The MRSA was diluted to 10^6 CFU/mL in MHB. The NPDM or tiamulin was added into the bacteria solution at the final concentrations of 2 × MIC and 4 × MIC. Then all tubes were incubated at 37 °C for 1 h or 2 h. Each of the above inoculums was diluted 1000-fold with pre-warmed MHB to remove the test compounds and placed in a water bath at 37 °C immediately. One hundred microliters of suspension were taken from each culture, diluted 10-fold in sterile saline, and inoculated on MHA plates at 0, 1, 2, 4, and 6 h after inoculation. The total number comprising the colonies was counted after incubation at 37 °C for 20 h. The PAE was calculated referring to published methods. The experiment was performed in triplicate.

Data set [13] concerns BRL-3A cells. Briefly: Cytotoxicity, MTT assay. Format: cell-based. Conditions: Rattus norvegicus; BRL-3A cells, MTT, 16 h incubation; read-out: 50% inhibition concentration (IC50), cell viability. On the procedure: The cytotoxicity of NPDM was evaluated by the MTT assay as previously reported. Briefly, the medium containing 1 × 10^5 BRL-3A cells per 1 mL was seeded into a 96-well plate at 100 μL per well. After incubation for 48 h, media were replaced with 100 μL of serial dilutions of test compounds and incubated for 16 h. The absorbance (A) was measured at 490 nm by an automatic microplate reader (BIO-TEK Instrument Inc., Winooski, VT, USA). The cell viability was calculated according to Equation (1):(1) Cell viability (%) = (Asimple−Anegative)/(Apositive−Anegative)×100%
A graph was constructed by plotting the inhibition percentage versus various concentrations of NPDM and tiamulin, from which the IC50 of NPDM or tiamulin was calculated. The measurement was repeated in triplicate.

Data set [14] relates to MRSA ATCC 43300. Briefly: Neutropenic mouse thigh infection model. Format: in vivo, Staphylococcus aureus. Conditions: 20 mg/kg i.v., neutropenic mice. How it is done:
(§4) The mouse thigh infection model was performed as described in the literature with minor modifications. Briefly, female mice had induced neutropenia (neutrophil count ≤ 100/mm^3) by administered intraperitoneally cyclophosphamide on day 4 (150 mg/kg) and day 1 (100 mg/kg) before the experiment. A bacterial suspension of 0.1 mL (MRSA or S. aureus) containing approximately 10^7 CFU/mL microorganism was injected into the posterior thigh of mice to establish infection. Two hours after infection, mice were intravenously injected with NPDM or tiamulin at 20 mg/kg. After 24 h, thighs (six per group) were collected upon euthanasia. Then, thighs were weighed and homogenized with sterile saline. Tissue homogenate was continuously diluted 10-fold and plated on MHA plates for colony counts. SPSS 19 software was used for statistical analysis and t-tests.

In data set [15] the test system is S. aureus ATCC 29213. The data set can be described thus: Neutropenic mouse thigh infection model. Format: in vivo, Staphylococcus aureus. Conditions: 20 mg/kg i.v., neutropenic mice. How it is done:
as §4

The test system of data set [16] is MRSA ATCC 43300. Briefly: Galleria mellonella infection model. Conditions: Staphylococcus aureus, 120 h; Galleria mellonella larvae infected with MRSA, survival over 5 days. Format: in vivo. How it is done: The survival rate of Galleria mellonella was determined according to the literature with some modifications. Larvae of Galleria mellonella (16 per group) were injected with 10 μL of 10^8 CFU/mL MRSA inoculum into the last right proleg. Two hours after infection, larvae were injected with 10 μL of various doses (17.14, 25.71, 37.14, 57.14, and 85.71 mg/kg) of NPDM or tiamulin (used as reference drug) into the last left proleg. The larvae were maintained at 37 °C. Survival of the larvae was recorded daily for 5 days, and the ED50 was calculated.

Take `C=C[C@]1(C)C[C@@H](OC(=O)CSc2nnc(N)s2)[C@]2(C)[C@H](C)CC[C@]3(CCC(=O)[C@H]32)[C@@H](C)[C@@H]1O` [ATTM, 14-O-[(2-Amino-1,3,4-thiadiazol-5-yl)Thioacetyl] Mutilin]: in data set [1], the LD50 is on record as 2304.4 mg/kg.

Regarding `C=C[C@]1(C)C[C@@H](OC(=O)CSCCN(CC)CC)[C@]2(C)[C@H](C)CC[C@]3(CCC(=O)[C@H]32)[C@@H](C)[C@@H]1O` [Tiamulin, reference compound], the MIC in data set [2], in [3], in [4] and in data set [5] was 0.5 µg/mL (≈ 1.01 µM) throughout. Further, the MBC in data set [6] amounted to 0.5 µg/mL (≈ 1.01 µM); in data set [7] it was 2 µg/mL (≈ 4.05 µM); in [8], 2 µg/mL (≈ 4.05 µM); in [9], 0.5 µg/mL (≈ 1.01 µM). For the same molecule, in [10] (2 × MIC), the “Time-kill activity at 2 × MIC” value is listed as “bacteriostatic activity with a rebound growth”. For the same molecule, the “Concentration showing bactericidal activity (≥3 log10 CFU/mL decrease)” value in [10] (after incubation for 24 h) is on record as not below 4 × MIC. Further, the “Concentration showing bacteriostatic effect” value in data set [11] was not below 2 × MIC. Also, the PAE in data set [12] (2 × MIC, exposure for 1 h) worked out at 1.53 h; in [12] (2 × MIC, exposure for 2 h), 1.65 h; in [12] (4 × MIC, exposure for 1 h), 1.90 h; in [12] (4 × MIC, exposure for 2 h), 2.04 h. In addition, in [13], the IC50 was 13.1 µg/mL (≈ 26.5 µM). Also, the “Reduction of mean MRSA counts in thighs vs untreated group” value in [14] (24 h) is ~ 1.15 log CFU/mL. The “Average amount of MRSA inoculum in thighs” value in [14] (24 h after treatment) is “(2.64 ± 1.95) × 10^8 CFU”. In addition, the “Average amount of S. aureus inoculum in thighs” value in data set [15] (24 h after treatment) is listed as “(2.00 ± 1.21) × 10^8 CFU”. Also, the “Reduction of mean bacterial counts in thighs vs untreated group” value in data set [15] (S. aureus, 24 h) was ~ 0.68 log CFU/mL. The molecule further displayed an ED50 in data set [16] of 75.7 mg/kg.
